The source made the active and inactive calls. The rule behind the calls is not given here.
What was measured:
Mus musculus [1] = organism: Mus musculus; test: animal or person; settings: NMRI, sc, read-out: MED
Description: Antipsychotic-like activity in sc dosed NMRI mouse assessed as reduction in methamphetamine-induced locomotor activity dosed 15 to 30 mins before administration of methamphetamine measured for 60 mins

Mus musculus [2] = test: Toxicity in NMRI mouse assessed as induction of tremors at 10 mg/kg, sc dosed 30 mins before test; format: organism-based; parameters: dose 10 mg/kg, route subcutaneous; settings: in vivo, 0.5 h
[3] = target: 5-hydroxytryptamine receptor 2A (Homo sapiens, UniProt P28223)
Description: Binding affinity to 5HT2A receptor (unknown origin)

Mus musculus [4] = organism: Mus musculus; settings: in vivo, sc, 0.5 h
Description: Effect on spontaneous exploratory locomotor activity in sc dosed NMRI mouse measured for 30 mins with activity counts each 5 mins

D(2) dopamine receptor = D(2) dopamine receptor (Homo sapiens, UniProt P14416)
Description: Binding affinity to dopamine D2 receptor (unknown origin)

[5] = target: T1, 5-hydroxytryptamine receptor 2C (Homo sapiens, UniProt P28335)
T1 sequence (P28335 whole entry): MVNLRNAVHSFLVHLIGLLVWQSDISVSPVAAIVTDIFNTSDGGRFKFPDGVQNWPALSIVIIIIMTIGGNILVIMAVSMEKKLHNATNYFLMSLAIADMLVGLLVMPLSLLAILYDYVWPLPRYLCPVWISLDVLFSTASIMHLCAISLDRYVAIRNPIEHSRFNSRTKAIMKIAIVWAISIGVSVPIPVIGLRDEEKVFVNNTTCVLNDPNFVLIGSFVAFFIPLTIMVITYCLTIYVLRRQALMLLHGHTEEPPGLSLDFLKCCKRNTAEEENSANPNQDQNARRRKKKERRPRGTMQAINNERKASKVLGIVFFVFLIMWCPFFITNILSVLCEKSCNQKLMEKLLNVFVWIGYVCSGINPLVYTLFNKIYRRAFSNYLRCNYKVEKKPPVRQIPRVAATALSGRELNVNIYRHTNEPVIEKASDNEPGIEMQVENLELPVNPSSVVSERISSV
Description: Binding affinity to 5HT2C receptor (unknown origin)

Mus musculus [6] = test: Antipsychotic-like activity in sc dosed NMRI mouse assessed as reduction in MK801-induced locomotor activity dosed 15 to 30 mins before administration of MK801 measured for 60 mins; format: functional; settings: read-out: MED
[7] = target: T2, 5-hydroxytryptamine receptor 1A (Homo sapiens, UniProt P08908)
T2 sequence (P08908 whole entry): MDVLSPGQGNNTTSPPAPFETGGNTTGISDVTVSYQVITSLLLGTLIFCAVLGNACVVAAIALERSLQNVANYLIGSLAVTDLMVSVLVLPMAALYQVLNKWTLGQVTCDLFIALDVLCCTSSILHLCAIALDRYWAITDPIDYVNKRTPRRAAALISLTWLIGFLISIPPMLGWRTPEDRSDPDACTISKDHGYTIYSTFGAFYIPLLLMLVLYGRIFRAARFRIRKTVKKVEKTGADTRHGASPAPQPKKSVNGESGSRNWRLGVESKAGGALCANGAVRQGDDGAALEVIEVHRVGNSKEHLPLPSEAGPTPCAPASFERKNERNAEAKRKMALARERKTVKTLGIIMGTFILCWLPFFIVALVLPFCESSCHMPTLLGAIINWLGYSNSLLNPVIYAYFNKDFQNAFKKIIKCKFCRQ
Description: Binding affinity to 5HT1A receptor (unknown origin)

D(3) dopamine receptor [8] = target: T3, D(3) dopamine receptor (Homo sapiens, UniProt P35462)
Description: Binding affinity to dopamine D3 receptor (unknown origin)

Mus musculus [9] = organism: Mus musculus; test: animal or person; settings: NMRI, sc, read-out: MED; remark: listed apart in the source
Description: Antipsychotic-like activity in sc dosed NMRI mouse assessed as reduction in PCP-induced locomotor activity dosed 15 to 30 mins before administration of methamphetamine measured for 60 mins

Mus musculus [10] = test: Anti-psychotic activity in mouse assessed as amelioration of PCP-induced disruption of prepulse inhibition at 30 mg/kg, po; format: functional, organism-based; parameters: dose 30 mg/kg
Rattus norvegicus [11] = test: Increase in dopamine release in Wistar rat nucleus accumbens at 10 mg/kg, sc measured during 0 to 90 mins administered as single dose by microdialysis method; format: functional, organism-based; parameters: dose 10 mg/kg
D(3) dopamine receptor [12] = target: T3, D(3) dopamine receptor; test: Agonist activity at human dopamine D3 receptor expressed in CHO-K1 cells by [35S]GTPgammaS binding assay relative to dopamine; format: functional, cell-based
Rattus norvegicus [13] = test: Induction of c-Fos in rat dorsolateral striatum region at 30 mg/kg, ip; format: functional, organism-based; parameters: dose 30 mg/kg
Rattus norvegicus [14] = test: Induction of c-Fos in rat nucleus accumbens shell region at 3 to 30 mg/kg, ip; format: functional, organism-based
Rattus norvegicus [15] = test: Induction of c-Fos in ip dosed rat nucleus accumbens; format: functional, organism-based
Mus musculus [16] = test: Anti-psychotic activity in mouse assessed as amelioration of PCP-induced disruption of prepulse inhibition at 3 mg/kg, po; format: functional, organism-based; parameters: dose 3 mg/kg
[17] = target: T4, 5-hydroxytryptamine receptor 1A (Homo sapiens) (UniProt P08908); test: Antagonist activity at human 5HT1A receptor (unknown origin) expressed in CHO cells reduction in 5-HT-induced response by [35S]GTPgammaS binding assay; format: functional, cell-based; settings: concentration not given here
T4 sequence (whole entry): T2 sequence (P08908 whole entry)

Mus musculus [18] = test: Increase in prepulse inhibition in mouse at 30 mg/kg, po dosed 30 mins before testing; format: functional, organism-based; parameters: dose 30 mg/kg
Mus musculus [19] = test: Anxiolytic activity in orally dosed mouse dosed 30 mins before test by marble burying method; format: functional, organism-based
Rattus norvegicus [20] = test: Induction of c-Fos in rat nucleus accumbens core region at 10 mg/kg, ip; format: functional, organism-based; parameters: dose 10 mg/kg
Rattus norvegicus [21] = test: Induction of c-Fos in rat nucleus accumbens core region at 30 mg/kg, ip; format: functional, organism-based; parameters: dose 30 mg/kg
Rattus norvegicus [22] = test: Increase in dopamine release in Wistar rat medial prefrontal cortex at 10 mg/kg, sc measured for 90 mins administered as single dose by microdialysis method; format: functional, organism-based; parameters: dose 10 mg/kg
D(3) dopamine receptor [23] = target: T3, D(3) dopamine receptor; test: Antagonist activity at human dopamine D3 receptor expressed in CHO-K1 cells assessed as reduction in dopamine-induced response by [35S]GTPgammaS binding assay relative to control; format: functional, cell-based; settings: concentration not given here
Rattus norvegicus [24] = test: Reduction in blood pressure in anaesthetized rat at 10 mg/kg, iv; format: functional, organism-based; parameters: dose 10 mg/kg
[25] = target: T4, 5-hydroxytryptamine receptor 1A (Homo sapiens); test: Agonist activity at human 5HT1A receptor (unknown origin) expressed in CHO cells by [35S]GTPgammaS binding assay relative to 5-HT; format: functional, cell-based
Rattus norvegicus [26] = test: Increase in heart rate in anaesthetized rat at 10 mg/kg, iv; format: functional, organism-based; parameters: dose 10 mg/kg
[27] = target: 5-hydroxytryptamine receptor 2A (Rattus norvegicus) (UniProt P14842); test: Antagonist activity at 5HT2A receptor in rat aortic rings assessed as reduction in 5-HT-induced contraction relative to control; settings: concentration not given here
Mus musculus [28] = test: Anxiolytic activity in mouse at 10 mg/kg, ip dosed 30 mins before test by marble burying method; format: functional, organism-based; parameters: dose 10 mg/kg
Mus musculus [29] = test: Effect on spontaneous locomotor activity in mouse at 10 mg/kg, ip; format: ADME, organism-based; parameters: dose 10 mg/kg, route intraperitoneal; settings: in vivo
Mus musculus [30] = test: Toxicity in NMRI mouse assessed as induction of sedation at 10 and 30 mg/kg, sc dosed 30 mins before test; format: organism-based; parameters: dose 30 mg/kg, route subcutaneous; settings: in vivo, 0.5 h

T3 sequence (P35462 whole entry): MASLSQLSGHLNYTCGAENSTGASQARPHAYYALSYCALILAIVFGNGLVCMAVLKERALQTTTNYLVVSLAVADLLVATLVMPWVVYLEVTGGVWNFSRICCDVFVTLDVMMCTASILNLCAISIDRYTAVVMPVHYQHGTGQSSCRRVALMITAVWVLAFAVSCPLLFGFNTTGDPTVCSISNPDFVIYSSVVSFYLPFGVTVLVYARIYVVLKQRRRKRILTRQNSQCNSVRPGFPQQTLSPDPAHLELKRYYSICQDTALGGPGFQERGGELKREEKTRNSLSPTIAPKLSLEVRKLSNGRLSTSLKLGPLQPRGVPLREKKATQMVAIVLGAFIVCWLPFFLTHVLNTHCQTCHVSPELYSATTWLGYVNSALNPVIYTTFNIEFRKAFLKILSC
Chain of D(2) dopamine receptor (P14416 whole entry): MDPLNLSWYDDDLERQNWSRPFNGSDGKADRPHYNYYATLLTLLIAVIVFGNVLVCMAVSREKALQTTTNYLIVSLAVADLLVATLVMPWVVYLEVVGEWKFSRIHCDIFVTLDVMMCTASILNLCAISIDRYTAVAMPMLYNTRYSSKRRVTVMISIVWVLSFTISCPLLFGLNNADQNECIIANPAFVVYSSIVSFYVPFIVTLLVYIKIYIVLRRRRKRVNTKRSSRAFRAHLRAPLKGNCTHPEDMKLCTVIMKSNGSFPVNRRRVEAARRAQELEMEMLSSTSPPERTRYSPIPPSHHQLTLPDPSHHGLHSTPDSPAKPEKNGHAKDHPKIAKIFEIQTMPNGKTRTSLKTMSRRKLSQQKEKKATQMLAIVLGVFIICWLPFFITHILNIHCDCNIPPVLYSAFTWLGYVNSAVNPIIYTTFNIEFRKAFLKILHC
Chain of 5-hydroxytryptamine receptor 2A (P28223 whole entry): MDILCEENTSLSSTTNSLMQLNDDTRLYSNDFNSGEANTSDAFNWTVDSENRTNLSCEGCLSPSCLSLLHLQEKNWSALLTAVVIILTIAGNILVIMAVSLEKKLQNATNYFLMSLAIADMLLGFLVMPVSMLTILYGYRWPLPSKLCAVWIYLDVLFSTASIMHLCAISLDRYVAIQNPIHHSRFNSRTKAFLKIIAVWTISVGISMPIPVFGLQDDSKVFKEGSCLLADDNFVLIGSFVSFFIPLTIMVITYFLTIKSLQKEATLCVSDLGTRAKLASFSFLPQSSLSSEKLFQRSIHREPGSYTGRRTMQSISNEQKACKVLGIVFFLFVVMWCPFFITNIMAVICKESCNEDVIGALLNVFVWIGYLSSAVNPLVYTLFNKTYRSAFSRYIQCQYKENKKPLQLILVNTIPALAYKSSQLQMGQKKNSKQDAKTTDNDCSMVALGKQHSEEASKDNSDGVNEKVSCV
Chain of 5-hydroxytryptamine receptor 2A (Rattus norvegicus) (P14842 whole entry): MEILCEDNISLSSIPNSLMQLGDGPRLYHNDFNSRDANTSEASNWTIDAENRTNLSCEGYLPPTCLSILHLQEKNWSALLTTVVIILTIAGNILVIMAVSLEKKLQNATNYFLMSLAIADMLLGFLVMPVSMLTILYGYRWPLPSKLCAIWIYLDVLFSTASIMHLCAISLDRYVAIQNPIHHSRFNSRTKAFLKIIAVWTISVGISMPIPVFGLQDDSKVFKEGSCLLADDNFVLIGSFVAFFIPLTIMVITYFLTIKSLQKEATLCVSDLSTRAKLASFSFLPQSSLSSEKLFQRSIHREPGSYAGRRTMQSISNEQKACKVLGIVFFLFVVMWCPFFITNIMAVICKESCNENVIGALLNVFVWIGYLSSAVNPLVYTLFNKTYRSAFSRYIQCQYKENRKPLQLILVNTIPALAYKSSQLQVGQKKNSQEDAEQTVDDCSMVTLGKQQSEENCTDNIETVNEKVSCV

## O=C(NCCCCN1CCN(c2ccccc2)CC1)c1cc2ccccc2o1
Mus musculus [1]
  minimal effective dose: ≤ 1 mg/kg
Mus musculus [2]
  Activity: Toxic
[3]
  Ki: 0.392 µM
Mus musculus [4]
  MED: <= 0.3 mg kg-1
D(2) dopamine receptor
  Ki: > 1 µM
[5]
  Ki: > 1 µM
Mus musculus [6]
  minimal effective dose: 3 mg/kg
[7]
  Ki: 0.03 µM
D(3) dopamine receptor [8]
  Ki: 0.004 µM
Mus musculus [9]
  minimal effective dose: ≤ 0.3 mg/kg

## O=C(NCCCCN1CCN(c2ccccc2)CC1)c1ccc2ncccc2c1
Mus musculus [10]
  Activity: inactive
Rattus norvegicus [11]
  Activity: inactive
D(3) dopamine receptor [12]
  Activity: 21%
Rattus norvegicus [13]
  Activity: Active
Rattus norvegicus [14]
  Activity: Active
Rattus norvegicus [15]
  Activity: Dose-dependent effect
Mus musculus [16]
  Activity: Active
[17]
  inhibition: 19%
Mus musculus [18]
  Activity: Active
Mus musculus [19]
  Activity: Dose-dependent effect
Rattus norvegicus [20]
  Activity: inactive
Rattus norvegicus [21]
  Activity: Active
Rattus norvegicus [22]
  Activity: Active
D(3) dopamine receptor [23]
  inhibition: 69%
Rattus norvegicus [24]
  Activity: Active
[25]
  Activity: 66%
Rattus norvegicus [26]
  Activity: Active
[27]
  inhibition: 94%

## CNC1=Nc2ccc(Cl)cc2C(c2ccccc2)=[N+]([O-])C1.Cl [CHLORDIAZEPOXIDE HYDROCHLORIDE]
Mus musculus [28]
  Activity: Active
Mus musculus [29]
  Activity: Non-toxic

## COc1cccc(N2CCN(CCCCNC(=O)c3cc4ccccc4cn3)CC2)c1
Mus musculus [1]
  minimal effective dose: ≤ 1 mg/kg
[3]
  Ki: 0.033 µM
Mus musculus [4]
  MED: 10 mg/kg
D(2) dopamine receptor
  Ki: > 1 µM
[5]
  Ki: 0.19 µM
Mus musculus [6]
  minimal effective dose: 10 mg/kg
Mus musculus [30]
  Activity: Toxic
[7]
  Ki: 0.0079 µM
D(3) dopamine receptor [8]
  Ki: 0.0094 µM
Mus musculus [9]
  minimal effective dose: 10 mg/kg

From ChEMBL document CHEMBL3351528, “Targeting dopamine D3 and serotonin 5-HT1A and 5-HT2A receptors for developing effective antipsychotics: synthesis, biological characterization, and behavioral studies” (J Med Chem, 2014)
